Measurements as given in EP0416804B1, “External preparation containing amusulosin” (YAMANOUCHI PHARMACEUTICAL CO., LTD., priority 1989, dated 1991).
In brackets after ≈: the same amount, converted by molar mass. Read-outs that look alike come from different tables or passages of the source.

Assays:
[1] = Solubility of AB-250 in water, ethanol and aqueous alcohol; assay type: physicochemical
Description: 1. Data on the solubility increasing effect of aqueous alcohol:
The solubility of AB-250 in water of pH 5-7 was 0.4% and that in ethanol was 0.03%.
It is, thus, evident that the use of aqueous ethanol results in a remarkable increase in the solubility of the active compound.

ai-receptor = conditions: compared with prazosin hydrochloride; cited from earlier work
[2] = test system: rabbit prostate, urethra and vesical triangle (trigone of the bladder); conditions: rabbit tissues; cited from earlier work
[3] = test system: human urethra and vesical triangle; conditions: human tissues; cited from earlier work

solubility ([1]; 50% ethanol, organic solvent or mixture, Michaelis buffer containing 50% of ethanol, pH 8, read-out: solubility in aqueous ethanol containing 50% of ethanol) [mg/mL] | solubility ([1]; 60% ethanol, organic solvent or mixture, Michaelis buffer containing 60% of ethanol, pH 7, read-out: solubility in aqueous ethanol containing 60% of ethanol) [mg/mL] | greater solubility in aqueous alcohol ([1]; aqueous alcohol compared with water and pure alcohol) | solubility ([1]; ethanol, organic solvent or mixture, read-out: solubility in ethanol) [mg/mL] | solubility increasing effect with isopropyl alcohol in lieu of ethanol ([1]; isopropyl alcohol used in lieu of ethanol) | solubility ([1]; water of pH 5-7, read-out: solubility in water) [mg/mL] | Structure (SMILES) | ai-receptor blocking activity (ai-receptor) | contraction of the rabbit prostate, urethra and vesical triangle [2] | contraction of the human urethra and vesical triangle [3]
51 (≈ 125 mM) | 48 (≈ 117 mM) | no less than 10 fold | 0.3 (≈ 0.734 mM) | More or less the same effect | 4 (≈ 9.79 mM) | CCOc1ccccc1OCCNC(C)Cc1ccc(OC)c(S(N)(=O)=O)c1 (stereo not drawn) [AB-250, 5-[2-[[2-(o-Ethoxyphenoxy)-ethyl]amino]propyl]-2-methoxybenzenesulfonamide] |  |  | 
 |  |  |  |  |  | CCOc1ccccc1OCCNC(C)Cc1ccc(OC)c(S(N)(=O)=O)c1 (stereo not drawn) [amusulosin, 5-[2-[[2-(o-Ethoxyphenoxy)-ethyl]amino]propyl]-2-methoxybenzenesulfonamide] | higher than that of prazosin hydrochloride | reduces the contraction | reduces the contraction
